The values that follow come from publication PMC10455244, “Alpha-Mangostin: A Potent Inhibitor of TRPV3 and Pro-Inflammatory Cytokine Secretion in Keratinocytes” (International Journal of Molecular Sciences, 2023).

For one test, the target named is T1, TRPV4 (Homo sapiens, UniProt Q9HBA0).
T1 construct: host or cells: HEK 293T (transient transfection)
Nature of the test: Whole-cell patch-clamp, GSK101-activated TRPV4 current in transfected HEK 293T cells. Format: cell-based. On the procedure:
Next, we examined the impact of alpha-mangostin on other TRP channels. TRPV4- and TRPA1 trasfected HEK 293T were activated using 300 nM GSK-1016790A (GSK101) and 100 µM allyl isothiocyanate (AITC), respectively. […] The dose–response curves were obtained by applying various concentrations of alpha-mangostin (Figure 2C).
Figure 2 Alpha-mangostin (α-MG) inhibited the TRPV3 current more effectively than other TRP channels. (A) Representative I–V curves from whole-cell recordings illustrate the inhibitory effect of 0.3 µM alpha-mangostin on TRPV4 and TRPA1 channels (GSK101: GSK-1016790A, a TRPV4 agonist; RR: ruthenium red, a TRP inhibitor; AITC: allyl isothiocyanate, a TRPA1 agonist; A967: A-967079, a TRPA1 inhibitor). Currents were elicited with ramp pulses from −100 to +100 mV over 1 s, which were repetitively applied every 20 s; the holding potential was set at 0 mV. (B) Summary of the inhibition percentage after 0.3 µM alpha-mangostin treatment at −100 mV. […]
In the whole-cell configuration, voltage ramps from −100 to +100 mV over 1 s were applied every 20 s and the holding potential was set at 0 mV. Sampling at 10 kHz and low-pass filtering at 5 kHz (w-c) were applied for all recorded currents. Recorded data were analyzed using Clampfit ver. […]
On the technique in general: The patch-clamp technique gives a direct electrical read-out from membranes.

The next test concerns the target T2, TRPV3 (Homo sapiens, UniProt Q8NET8).
T2 sequence (Q8NET8 1-790): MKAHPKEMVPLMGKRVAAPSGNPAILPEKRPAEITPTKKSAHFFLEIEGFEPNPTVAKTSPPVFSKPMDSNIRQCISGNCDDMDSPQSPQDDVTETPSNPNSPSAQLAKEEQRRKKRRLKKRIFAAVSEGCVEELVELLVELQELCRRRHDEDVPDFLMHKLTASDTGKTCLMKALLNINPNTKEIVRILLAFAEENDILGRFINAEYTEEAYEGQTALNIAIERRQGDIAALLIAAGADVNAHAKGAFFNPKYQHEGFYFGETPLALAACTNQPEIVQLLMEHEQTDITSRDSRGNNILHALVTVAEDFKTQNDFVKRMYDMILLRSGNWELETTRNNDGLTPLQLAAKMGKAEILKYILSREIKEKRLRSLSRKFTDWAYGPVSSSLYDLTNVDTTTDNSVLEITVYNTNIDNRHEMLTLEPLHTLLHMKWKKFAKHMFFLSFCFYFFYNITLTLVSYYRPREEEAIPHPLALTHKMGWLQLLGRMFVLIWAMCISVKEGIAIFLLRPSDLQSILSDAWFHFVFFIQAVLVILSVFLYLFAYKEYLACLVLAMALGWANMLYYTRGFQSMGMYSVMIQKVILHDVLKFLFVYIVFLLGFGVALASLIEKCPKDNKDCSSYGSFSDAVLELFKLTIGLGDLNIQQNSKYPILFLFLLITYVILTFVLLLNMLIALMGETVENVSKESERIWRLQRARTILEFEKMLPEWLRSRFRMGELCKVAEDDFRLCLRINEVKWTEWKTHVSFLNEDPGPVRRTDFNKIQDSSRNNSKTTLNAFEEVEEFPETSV
Put plainly: Whole-cell patch-clamp, carvacrol-evoked TRPV3 current in TRPV3-overexpressing HEK 293T cells. The format is cell-based. The following applies: 1000 µM carvacrol, −100 mV, at higher concentrations. Set-up: host or cells: NHEK.

As a reminder, the inhibition is the percentage by which the read-out fell short of the control. For orientation: IC50 means the concentration at which inhibition is half-maximal.

T1 sequence (Q9HBA0 whole entry, species assumed): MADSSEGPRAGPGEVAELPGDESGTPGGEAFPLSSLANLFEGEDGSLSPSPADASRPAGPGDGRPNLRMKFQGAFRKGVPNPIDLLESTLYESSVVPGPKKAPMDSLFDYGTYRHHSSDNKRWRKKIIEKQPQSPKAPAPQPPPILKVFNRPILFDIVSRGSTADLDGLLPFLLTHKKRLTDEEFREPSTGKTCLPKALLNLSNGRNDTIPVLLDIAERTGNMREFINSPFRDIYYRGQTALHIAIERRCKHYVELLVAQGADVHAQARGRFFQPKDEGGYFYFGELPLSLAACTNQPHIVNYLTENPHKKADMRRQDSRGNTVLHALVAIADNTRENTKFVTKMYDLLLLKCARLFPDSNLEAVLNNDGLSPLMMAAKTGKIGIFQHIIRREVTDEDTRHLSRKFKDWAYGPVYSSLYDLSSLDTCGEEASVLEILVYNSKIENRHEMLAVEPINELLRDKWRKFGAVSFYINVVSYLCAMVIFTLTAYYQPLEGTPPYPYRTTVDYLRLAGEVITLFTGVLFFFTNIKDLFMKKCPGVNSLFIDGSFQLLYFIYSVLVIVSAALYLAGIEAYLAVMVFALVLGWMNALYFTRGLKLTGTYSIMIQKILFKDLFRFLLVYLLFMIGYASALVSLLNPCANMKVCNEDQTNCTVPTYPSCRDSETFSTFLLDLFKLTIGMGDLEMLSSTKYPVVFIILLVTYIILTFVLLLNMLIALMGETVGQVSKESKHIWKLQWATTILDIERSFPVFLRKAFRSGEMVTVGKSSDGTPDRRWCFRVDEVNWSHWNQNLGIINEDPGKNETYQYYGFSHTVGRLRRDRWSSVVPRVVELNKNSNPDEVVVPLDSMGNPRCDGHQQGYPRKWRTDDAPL

On to `COc1c(O)cc2oc3cc(O)c(CC=C(C)C)c(O)c3c(=O)c2c1CC=C(C)C` [Alpha-mangostin], for which the inhibition at 0.3 µM at TRPV4 (HEK-293T, 0.3 µM, 300 nM GSK101, −100 mV, read-out: Inhibition percentage of TRPV4 current) was 16.1%. In addition, the IC50 at TRPV4 (transfected HEK 293T, 300 nM GSK101, read-out: IC50, inhibition of TRPV4 current) came to 8.47 ± 1.72 µM. The “Effect on TRPV3 current induced by carvacrol” value on TRPV3 is “suppressed”.
